From patent publication US20100285959A1, “HERBICIDAL MIXTURES” (priority 2006, published 2010)

Tests used:
wild buckwheat (POLCO) = assay: Test 4 field trial, postemergence; format: in vivo, Polygonum convolvulus
Method: A field trial was conducted to evaluate the effects of mixtures of Compound 2 with commercial herbicides on spring wheat (TRZAS, Triticum aestivum L.) and several weed species. Wheat seeds (cv. ‘AC Intrepid’) were planted in late spring season, 3.8 cm deep in a loam soil having 2.7% organic matter and a pH of 7. Plots were 6 m long by 2.5 m wide. The field was managed using no-till practices. The plots were arranged in a randomized complete block design with each treatment being replicated four times. Treatments were applied postemergence 25 days after planting using a backpack sprayer delivering a spray volume of 55 L/ha using a pressure of 276 kPa. […] Compound 2 and clodinafop treatments, alone and in combination, also included a surfactant. Weed species present in the experimental plots in sufficient quantity to be evaluated included wild oat (AVEFA, Avena fatua L.), common lambsquarters (CHEAL, Chenopodium album L.), kochia (KCHSC, Kochia scoparia (L.) Schrad.), wild buckwheat (POLCO, Polygonum convolvulus L.), Russian thistle (SASKR, Salsola kali L. ssp. ruthenica (Iljin) Soo), and field pennycress (THLAR, Thlaspi arvense L.). […] Common lambsquarters was evaluated only at 14 days after application. […] Results are the means of the four replicates.

oak species (QUESS) = assay: Test 13 field trial, postemergence, brush weeds; format: in vivo, Quercus L. spp.; conditions: 56 DAA; g a.i./ha: Cpd 2 250; Fosamine-ammonium 6700
From the text: Plots were established in non-crop land and were 6.1 m long by 3.0 m wide. […] Treatments were applied postemergence to the brush weeds using a backpack sprayer delivering a spray volume of 468 L/ha using a pressure of 241 kPa. […] All treatments also included a surfactant. […] Results are the means of the three replicates.

giant ragweed (AMBTR) = assay: Test 25 field trial, postemergence, growth as percent of control; format: in vivo, Ambrosia trifida; conditions: 14 DAA
From the text: Corn seeds (hybrid ‘Pioneer 31G96 RR’) were planted in mid spring season, 3.8 cm deep in a clay loam soil having 2% organic matter and a pH of 6.6. Plots were 6.1 m long by 3.0 m wide with rows spaced 76 cm apart. Seeds were spaced 15 cm apart within the rows. The field was managed using conventional tillage practices. […] Giant ragweed and Pennsylvania smartweed could only be evaluated 14 days after application. […] Results are the means of the three replicates. This growth inhibition data was converted to results in the form of “plant growth as a percent of control plant growth” using the calculation “100 minus growth inhibition”.
When this form of Colby's Equation is used, if the observed effects on weeds are less than the expected values, the mixture is synergistic.

[1] = tested on: common lambsquarters (CHEAL); assay: Test 26 field trial, postemergence; format: in vivo, Chenopodium album; design: scale not given here
From the text: Corn seeds (hybrid ‘Pioneer 31G96’) were planted in mid spring season, 3.8 cm deep in a silt loam soil having 2% organic matter and a pH of 6.6. Plots were 6.1 m long by 3.0 m wide with rows spaced 76 cm apart. Seeds were spaced 15 cm apart within the rows. The field was managed using conventional tillage practices. […] All treatments also included a surfactant. […] Some of the weed species could not be evaluated at every timing. […] Results are the means of the three replicates.

kochia (KCHSC) = assay: Test 27 field trial, postemergence; format: in vivo, Kochia scoparia; design: scale not given here
From the text: Wheat seeds (cv. ‘Custer’) were planted in late fall season in a clay loam soil. Plots were 9 m long by 1.8 m wide. The field was managed using conventional tillage practices. […] All treatments also included a surfactant. […] Results are the means of the three replicates.

corn (ZEAMD) = assay: Test 14 field trial, preemergence, growth as percent of control; format: in vivo, Zea mays ssp. indentata; conditions: 1870 g a.i./ha
From the text: Corn seeds (hybrid ‘Pioneer 31G96 RR’) were planted in mid spring season, 3.8 cm deep in a clay loam soil having 2% organic matter and a pH of 6.6. Plots were 6.1 m long by 3.0 m wide with rows spaced 76 cm apart. Seeds were spaced 15 cm apart within the rows. The field was managed using conventional tillage practices. […] Yellow nutsedge was only evaluated 19 and 28 days after application, and ivyleaf morningglory could only be evaluated 28 days after application. […] Results are the means of the three replicates. This growth inhibition data was converted to results in the form of “plant growth as a percent of control plant growth” using the calculation “100 minus growth inhibition”. […] For “growth as a percent of control” data, Colby's Equation calculates the expected additive effect of herbicidal mixtures having two active ingredients as follows:
Ga+b=GaGb/100 • wherein Ga+b is the growth as a percent of control of plants treated with the mixture expected from additive contribution of the individual components, • Ga is the observed growth as a percent of control of plants treated with the first active ingredient at the same use rate as in the mixture, and • Gb is the observed growth as a percent of control of plants treated with the second active ingredient at the same use rate as in the mixture. For mixtures having three active ingredients, Colby's Equation to calculate the expected additive effect of herbicidal mixtures is as follows:
Ga+b+c=GaGbGc/10,000 • wherein Ga and Gb are as defined above and • Ga+b+c is the growth as a percent of control of plants treated with the mixture expected from additive contribution of the individual components, and • Gc is the observed growth as a percent of control of plants treated with the third active ingredient at the same use rate as in the mixture. When these two forms of Colby's Equation are used, if the observed effects on weeds are less than the expected values, the mixture is synergistic.

COC(=O)c1nc(C2CC2)nc(N)c1Cl [Compound 2, methyl 6-amino-5-chloro-2-cyclopropyl-4-pyrimidinecarboxylate]
POLCO Obs (wild buckwheat (POLCO); 14 DAA, Cpd 2 30 g a.i./ha alone or with clodinafop 56 or fenoxaprop 90): 61 | POLCO Obs (wild buckwheat (POLCO); 14 DAA, Cpd 2 60 g a.i./ha alone or with clodinafop 56 or fenoxaprop 90): 63 | POLCO Obs (wild buckwheat (POLCO); 35 DAA, Cpd 2 30 g a.i./ha alone or with clodinafop 56 or fenoxaprop 90): 51 | POLCO Obs (wild buckwheat (POLCO); 35 DAA, Cpd 2 60 g a.i./ha alone or with clodinafop 56 or fenoxaprop 90): 55 | QUESS Obs (oak species (QUESS)): 33 | AMBTR Obs (percent of control) (giant ragweed (AMBTR); Cpd 2 30 g a.i./ha): 5% | AMBTR Obs (percent of control) (giant ragweed (AMBTR); Cpd 2 45 g a.i./ha): 0% | CHEAL Obs ([1]; 14 DAA, 30 g a.i./ha): 88 | CHEAL Obs ([1]; 14 DAA, 45 g a.i./ha): 63 | CHEAL Obs ([1]; 14 DAA, 60 g a.i./ha): 100 | CHEAL Obs ([1]; 28 DAA, 30 g a.i./ha): 100 | CHEAL Obs ([1]; 28 DAA, 45 g a.i./ha): 100 | CHEAL Obs ([1]; 28 DAA, 60 g a.i./ha): 100 | CHEAL Obs ([1]; 56 DAA, 30 g a.i./ha): 100 | CHEAL Obs ([1]; 56 DAA, 45 g a.i./ha): 100 | CHEAL Obs ([1]; 56 DAA, 60 g a.i./ha): 100 | KCHSC Obs (kochia (KCHSC); 16 DAA, 15 g a.i./ha): 30 | KCHSC Obs (kochia (KCHSC); 16 DAA, 30 g a.i./ha): 65 | KCHSC Obs (kochia (KCHSC); 16 DAA, 45 g a.i./ha): 78 | KCHSC Obs (kochia (KCHSC); 28 DAA, 15 g a.i./ha): 43 | KCHSC Obs (kochia (KCHSC); 28 DAA, 30 g a.i./ha): 79 | KCHSC Obs (kochia (KCHSC); 28 DAA, 45 g a.i./ha): 94 | KCHSC Obs (kochia (KCHSC); 49 DAA, 15 g a.i./ha): 32 | KCHSC Obs (kochia (KCHSC); 49 DAA, 30 g a.i./ha): 73 | KCHSC Obs (kochia (KCHSC); 49 DAA, 45 g a.i./ha): 96

CCc1cccc(C)c1N(C(=O)CCl)[C@@H](C)COC [S-Metolachlor, S-metolachlor, reference compound]
Obs growth % of control (corn (ZEAMD); 19 DAA): 98% | Obs growth % of control (corn (ZEAMD); 28 DAA): 98% | Obs growth % of control (corn (ZEAMD); 56 DAA): 100%
